Results taken from patent US8772492B2, “Substituted isoquinoline and isoquinolinone derivatives” (Sanofi, priority 2006, dated 2014).

Molecular target: T1, Active human recombinant ROCK II (N-terminal His6-tagged recombinant human ROCK-II residues 11-552) (Homo sapiens, UniProt O75116)
T1 construct: recombinant human ROCK-II residues 11-552; His6 (N); purchased Upstate Ltd., Dundee, UK
Test: Determination of Rho-kinase activity (Rho-kinase inhibition, Caliper peptide phosphorylation assay)
Type: biochemical
Conditions: Fluorescein-AKRRRLSSLRA-COOH peptide substrate and ATP, 60 min incubation at 32° C., tested as the form (salt or free base) obtained in the examples, read-out: pIC50 (negative decadal logarithm of the IC50), Rho-kinase inhibition (converted)
Procedure: Determination of Rho-Kinase Activity
To measure Rho-kinase inhibition, IC50 values were determined according to the following protocol:
Active human recombinant ROCK II (N-terminal His6-tagged recombinant human ROCK-II residues 11-552) was purchased from Upstate Ltd., Dundee, UK. The peptide substrate, Fluorescein-AKRRRLSSLRA-COOH, was obtained from JPT Peptide Technologies, Berlin, Germany. Adenosine-5′-triphosphate (ATP), bovine serum albumine (BSA), dimethylsulphoxide (DMSO), 4-(2-Hydroxyethyl)piperazine-1-ethanesulfonic acid (Hepes), Brij-35 and dithiothreitol (DTT) were purchased from Sigma-Aldrich, Munich, Germany. Tris(hydroxymethyl)-aminomethane (Tris), magnesium chloride, NaOH, 1M HCl and EDTA were obtained from Merck Biosciences, Darmstadt, Germany. “Complete” protease inhibitor was from Roche Diagnostics, Mannheim, Germany.
Test compounds were diluted to the appropriate concentrations in buffer 1 (25 mM Tris-HCl, pH 7.4, 5 mM MgCl2, 2 mM DTT, 0.02% (w/v) BSA and 3% DMSO). The ROCK II enzyme was diluted to a concentration of 100 ng/ml in buffer 2 (25 mM Tris-HCl, pH 7.4, 5 mM MgCl2, 2 mM DTT and 0.02% (w/v) BSA). The peptide substrate and ATP were diluted to concentrations of 3 μM and 120 μM, respectively, in the buffer 2. Two μl of the compound solution were mixed with 2 μl of the diluted enzyme in a 384-well small volume microtiter plate (Greiner, Bio-One, Frickenhausen, Germany), and the kinase reaction was initiated by addition of 2 μl of the solution containing peptide substrate and ATP. After 60 min incubation at 32° C., the reaction was stopped by addition of 20 μl of a solution containing 100 mM Hepes-NaOH, pH 7.4, 0.015% (v/v) Brij-35, 45 mM EDTA and 0.227% chip coating reagent 1 (Caliper Lifescience Inc, Hopkinton, Mass.). Phosphorylation of the substrate peptide was then detected on a Caliper 3000 instrument essentially as described by Pommereau et al (J. Biomol. Screening 9(5), 409-416, 2004). Separation conditions were as follows: Pressure −1.3 psi, upstream voltage −1562 V, downstream voltage −500 V, sample sip time 200 ms. Positive controls (buffer 1 instead of compound) and negative controls (buffer 1 instead of compound and buffer 2 instead of ROCK II) were run in parallel on each plate.
The following products/compounds were tested in said assay by using the respective form (salt or free base) obtained as in the examples described above and the following activities were measured.

T1 sequence (O75116 11-552): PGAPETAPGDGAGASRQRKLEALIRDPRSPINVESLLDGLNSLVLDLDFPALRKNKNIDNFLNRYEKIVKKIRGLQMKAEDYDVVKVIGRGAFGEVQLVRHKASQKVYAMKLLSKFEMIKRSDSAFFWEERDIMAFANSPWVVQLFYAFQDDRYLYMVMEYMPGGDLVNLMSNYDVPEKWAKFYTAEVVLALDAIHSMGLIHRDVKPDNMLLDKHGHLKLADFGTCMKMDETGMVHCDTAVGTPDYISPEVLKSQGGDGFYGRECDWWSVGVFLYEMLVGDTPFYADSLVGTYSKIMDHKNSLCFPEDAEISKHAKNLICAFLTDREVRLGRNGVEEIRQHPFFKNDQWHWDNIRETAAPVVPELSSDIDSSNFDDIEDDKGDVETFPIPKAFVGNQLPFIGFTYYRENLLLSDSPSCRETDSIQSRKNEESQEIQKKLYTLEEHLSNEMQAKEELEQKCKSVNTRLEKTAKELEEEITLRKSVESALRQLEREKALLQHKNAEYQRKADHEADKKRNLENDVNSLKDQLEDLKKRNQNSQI

| SMILES | IC50 |
| --- | --- |
| O=C(NCCc1ccccc1)[C@@H]1C[C@@H](Oc2ccc3cnccc3c2)CCN1 [Compound 21, (2S,4S)-4-(Isoquinolin-6-yloxy)-piperidine-2-carboxylic acid phenethyl-amide] | 1000 to 10000 nM |
| O=C(NCc1ccccc1Cl)[C@@H]1C[C@@H](Oc2ccc3cnccc3c2)CCN1 [Compound 22, (2S,4S)-4-(Isoquinolin-6-yloxy)-piperidine-2-carboxylic acid 2-chloro-benzylamide] | ≤ 1000 nM |
| O=C(NCCO)[C@@H]1C[C@@H](Oc2ccc3cnccc3c2)CN1 [Compound 27, (2S,4R)-4-(Isoquinolin-6-yloxy)-pyrrolidine-2-carboxylic acid (2-hydroxy-ethyl)-amide] | 1000 to 10000 nM |
| C#CCNC(=O)[C@@H]1C[C@@H](Oc2ccc3cnccc3c2)CN1 [Compound 31, (2S,4R)-4-(Isoquinolin-6-yloxy)-pyrrolidine-2-carboxylic acid prop-2-ynylamide] | ≤ 1000 nM |
| O=C(NCc1ccco1)[C@@H]1C[C@H](Nc2ccc3cnccc3c2)CN1 [Compound 41, (2S,4S)-4-(Isoquinolin-6-ylamino)-pyrrolidine-2-carboxylic acid (furan-2-ylmethyl)-amide] | 1000 to 10000 nM |
| O=C(NCCc1ccccc1)[C@@H]1C[C@H](Nc2ccc3cnccc3c2)CN1 [Compound 45, (2S,4S)-4-(Isoquinolin-6-ylamino)-pyrrolidine-2-carboxylic acid phenethyl-amide] | ≤ 1000 nM |
| COc1cccc(CNC(=O)[C@H]2CNC[C@@H]2Nc2ccc3cnccc3c2)c1 [Compound 48, (3S,4R)-4-(Isoquinolin-6-ylamino)-pyrrolidine-3-carboxylic acid 3-methoxy-benzylamide] | ≤ 1000 nM |
| COCCNC(=O)[C@H]1CNC[C@@H]1Nc1ccc2cnccc2c1 [Compound 49, (3S,4R)-4-(Isoquinolin-6-ylamino)-pyrrolidine-3-carboxylic acid (2-methoxy-ethyl)-amide] | 1000 to 10000 nM |
| Cc1ccccc1NC(=O)[C@H]1CNC[C@@H]1Nc1ccc2cnccc2c1 [Compound 50, (3S,4R)-4-(Isoquinolin-6-ylamino)-pyrrolidine-3-carboxylic acid o-tolylamide] | ≤ 1000 nM |
| O=c1[nH]ccc2cc(OC3(c4ccccc4)CCN(Cc4ccccc4)CC3)c(Cl)cc12 [Compound 69, 6-(1-Benzyl-4-phenyl-piperidin-4-yloxy)-7-chloro-2H-isoquinolin-1-one] | 1000 to 10000 nM |
| CN1[C@@H]2CC[C@H]1C[C@@H](Oc1cc3cc[nH]c(=O)c3cc1Cl)C2 [Compound 75, 7-Chloro-6-(8-methyl-8-aza-bicyclo[3.2.1]oct-3-yloxy)-2H-isoquinolin-1-one] | ≤ 1000 nM |
| Cc1cc2c(=O)[nH]ccc2cc1O[C@H]1C[C@H]2CC[C@@H](C1)N2C [Compound 76, 7-Methyl-6-(8-methyl-8-aza-bicyclo[3.2.1]oct-3-yloxy)-2H-isoquinolin-1-one] | ≤ 1000 nM |
